Reference: ChEMBL document CHEMBL1201862, “PubChem BioAssay data set” (2004)
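Step 1: Grow cells in 96-well plates. Step 2: Expose to compound for 48 hours at 5 concentrations. Step 3: Interpolate endpoints linearly; if unreached, use highest concentration. GI50 = concentration required for 50% inhibition of growth.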 Calls of active or inactive are those of the source. Cut-off read from the data, not from the text of the source: active = GI50 up to about 1.1 µM and inactive = higher.

What was measured:
Test in all cases: inhibition of tumour cell growth, NCI panel, 48 h
Malme-3M = test system: Malme-3M
UO-31 = test system: UO-31
SNB-75 = test system: SNB-75
EKVX = test system: EKVX
786-0 = test system: 786-0
NCI/ADR-RES = test system: NCI/ADR-RES
BT-549 = test system: BT-549
OVCAR-5 = test system: OVCAR-5
A549 = test system: A549
OVCAR-3 = test system: OVCAR-3
SK-MEL-28 = test system: SK-MEL-28
SW-620 = test system: SW-620
MDA-MB-231 = test system: MDA-MB-231
MCF7 = test system: MCF7
NCI-H460 = test system: NCI-H460
HL-60 = test system: HL-60
HT-29 = test system: HT-29
COLO 205 = test system: COLO 205
NCI-H226 = test system: NCI-H226

Row | Structure (SMILES) | GI50 (Malme-3M) | GI50 (UO-31) | GI50 (SNB-75) | GI50 (EKVX) | GI50 (786-0) | GI50 (NCI/ADR-RES) | GI50 (BT-549) | GI50 (OVCAR-5) | GI50 (A549) | GI50 (OVCAR-3) | GI50 (SK-MEL-28) | GI50 (SW-620) | GI50 (MDA-MB-231) | GI50 (MCF7) | GI50 (NCI-H460) | GI50 (HL-60) | GI50 (HT-29) | GI50 (COLO 205) | GI50 (NCI-H226)
1 | CC1=NN(c2nc(N)nc(/C(C#N)=C\c3cccc([N+](=O)[O-])c3)n2)C(C)(C)C1 | 16.9 µM (inactive) | 5.32 µM (inactive) | 6.68 µM (inactive) | 29.9 µM (inactive) | 6.58 µM (inactive) | 18.8 µM (inactive) | > 20.7 µM (inactive) | 24.4 µM (inactive) | 12.3 µM (inactive) | 6.76 µM (inactive) | 19.1 µM (inactive) | 8.75 µM (inactive) | 9.29 µM (inactive) | 6.82 µM (inactive) | 4.31 µM (inactive) | 0.205 µM (active) | 11.7 µM (inactive) | 14.9 µM (inactive) | –
2 | NC(=O)C(c1ccccc1)N1OC2C(=O)N(c3ccccc3)C(=O)C2C1c1c2ccccc2c(Cl)c2ccccc12 (configuration not stated) | > 100 µM (inactive) | > 100 µM (inactive) | > 100 µM (inactive) | > 100 µM (inactive) | > 100 µM (inactive) | > 100 µM (inactive) | > 100 µM (inactive) | > 100 µM (inactive) | > 100 µM (inactive) | > 100 µM (inactive) | > 100 µM (inactive) | > 100 µM (inactive) | > 100 µM (inactive) | > 100 µM (inactive) | – | > 100 µM (inactive) | > 100 µM (inactive) | > 100 µM (inactive) | > 100 µM (inactive)
3 | NS(=O)(=O)c1ccc(NC(=S)N/C=C2\C(=O)Nc3ccccc3C2=O)cc1 | – | > 100 µM (inactive) | > 100 µM (inactive) | > 100 µM (inactive) | > 100 µM (inactive) | > 100 µM (inactive) | > 100 µM (inactive) | > 100 µM (inactive) | > 100 µM (inactive) | > 100 µM (inactive) | > 100 µM (inactive) | > 100 µM (inactive) | > 100 µM (inactive) | > 100 µM (inactive) | > 100 µM (inactive) | 2.07 µM (inactive) | > 100 µM (inactive) | > 100 µM (inactive) | > 100 µM (inactive)
4 | NP1(Oc2ccc(F)cc2)=NP(N)(Oc2ccc(F)cc2)=NP(Oc2ccc(F)cc2)(Oc2ccc(F)cc2)=N1 (configuration not stated) | 5.27 µM (inactive) | 4.06 µM (inactive) | 3.67 µM (inactive) | 6.82 µM (inactive) | 11 µM (inactive) | 6.17 µM (inactive) | 2.23 µM (inactive) | 11.5 µM (inactive) | 3.99 µM (inactive) | 4.68 µM (inactive) | 12.4 µM (inactive) | 12.4 µM (inactive) | 11.4 µM (inactive) | 2.94 µM (inactive) | 3.7 µM (inactive) | 5.09 µM (inactive) | 5.43 µM (inactive) | 6.64 µM (inactive) | –
5 | Cc1cc2ccc(N)nc2nc1O | > 100 µM (inactive) | > 100 µM (inactive) | > 100 µM (inactive) | > 100 µM (inactive) | > 100 µM (inactive) | > 100 µM (inactive) | > 100 µM (inactive) | > 100 µM (inactive) | > 100 µM (inactive) | – | – | > 100 µM (inactive) | > 100 µM (inactive) | > 100 µM (inactive) | > 100 µM (inactive) | > 100 µM (inactive) | > 100 µM (inactive) | > 100 µM (inactive) | 51.6 µM (inactive)
6 | COC(=O)CC(CNC(=O)OCc1ccccc1)OCc1ccc(OC)cc1 (configuration not stated) | > 100 µM (inactive) | 50.6 µM (inactive) | > 100 µM (inactive) | > 100 µM (inactive) | > 100 µM (inactive) | > 100 µM (inactive) | 34 µM (inactive) | > 100 µM (inactive) | > 100 µM (inactive) | > 100 µM (inactive) | > 100 µM (inactive) | > 100 µM (inactive) | > 100 µM (inactive) | > 100 µM (inactive) | > 100 µM (inactive) | > 100 µM (inactive) | – | > 100 µM (inactive) | 66.2 µM (inactive)
7 | Cc1nc2ccccc2n1COC(Cn1ccnc1)c1ccc(Cl)cc1Cl (configuration not stated) | > 100 µM (inactive) | 25.6 µM (inactive) | 53.6 µM (inactive) | 7.1 µM (inactive) | 75.7 µM (inactive) | 99.8 µM (inactive) | 33 µM (inactive) | > 100 µM (inactive) | 72.4 µM (inactive) | 41.4 µM (inactive) | > 100 µM (inactive) | > 100 µM (inactive) | > 100 µM (inactive) | 41.7 µM (inactive) | 15.3 µM (inactive) | 30.5 µM (inactive) | 62.2 µM (inactive) | 39.3 µM (inactive) | –
8 | C(/C=N/N=C1NCCCN1)=N\N=C1NCCCN1 | > 100 µM (inactive) | > 100 µM (inactive) | > 100 µM (inactive) | > 100 µM (inactive) | > 100 µM (inactive) | > 100 µM (inactive) | > 100 µM (inactive) | > 100 µM (inactive) | > 100 µM (inactive) | > 100 µM (inactive) | > 100 µM (inactive) | > 100 µM (inactive) | > 100 µM (inactive) | > 100 µM (inactive) | > 100 µM (inactive) | – | > 100 µM (inactive) | > 100 µM (inactive) | > 100 µM (inactive)
9 | CC(=O)c1ccc(O)c(CN(C2CCCCC2)C2CCCCC2)c1O | > 100 µM (inactive) | 83.2 µM (inactive) | 2.19 µM (inactive) | > 100 µM (inactive) | > 100 µM (inactive) | > 100 µM (inactive) | > 100 µM (inactive) | > 100 µM (inactive) | > 100 µM (inactive) | > 100 µM (inactive) | > 100 µM (inactive) | 81.1 µM (inactive) | > 100 µM (inactive) | > 100 µM (inactive) | > 100 µM (inactive) | – | > 100 µM (inactive) | > 100 µM (inactive) | > 100 µM (inactive)
10 | CNc1c2c(c3nc4ccccc4c4c3c1N=C4)NCCC2=O [PLAKINIDINE A] | 4.65 µM (inactive) | 3.56 µM (inactive) | 2.87 µM (inactive) | > 10 µM (inactive) | 2.41 µM (inactive) | 2.83 µM (inactive) | 7.74 µM (inactive) | 5.83 µM (inactive) | 3.52 µM (inactive) | 8.57 µM (inactive) | > 10 µM (inactive) | 2.44 µM (inactive) | 3.86 µM (inactive) | 2.66 µM (inactive) | 3.15 µM (inactive) | – | 2.23 µM (inactive) | 2.82 µM (inactive) | 7.43 µM (inactive)
11 | SCCCSCCSCCCSCCS | – | 80.9 µM (inactive) | 45.6 µM (inactive) | > 100 µM (inactive) | > 100 µM (inactive) | > 100 µM (inactive) | > 100 µM (inactive) | > 100 µM (inactive) | > 100 µM (inactive) | > 100 µM (inactive) | > 100 µM (inactive) | > 100 µM (inactive) | 70.6 µM (inactive) | > 100 µM (inactive) | > 100 µM (inactive) | 13.3 µM (inactive) | > 100 µM (inactive) | > 100 µM (inactive) | –
12 | Cc1cccc(-c2cccc(COCc3cccc(-c4cccc(CO)n4)n3)n2)n1 | – | > 50 µM (inactive) | > 50 µM (inactive) | 35.5 µM (inactive) | 38.5 µM (inactive) | 5.26 µM (inactive) | 19.3 µM (inactive) | > 50 µM (inactive) | > 50 µM (inactive) | 3.7 µM (inactive) | > 50 µM (inactive) | > 50 µM (inactive) | 24.2 µM (inactive) | 36.2 µM (inactive) | 43.8 µM (inactive) | 8.28 µM (inactive) | 40.8 µM (inactive) | 4.11 µM (inactive) | > 50 µM (inactive)
13 | O=C1CSC2(CCN(CCCN3c4ccccc4Sc4ccc(Cl)cc43)CC2)N1 | 12 µM (inactive) | 6.75 µM (inactive) | 7.43 µM (inactive) | 9.31 µM (inactive) | 11.2 µM (inactive) | 4.9 µM (inactive) | 12.1 µM (inactive) | 11.9 µM (inactive) | 10.1 µM (inactive) | 10.4 µM (inactive) | 15 µM (inactive) | 11.2 µM (inactive) | 7.06 µM (inactive) | 5.9 µM (inactive) | 4.08 µM (inactive) | – | 3.53 µM (inactive) | 10 µM (inactive) | 17.6 µM (inactive)
14 | Nc1ccccc1C(=O)CC1OC(=O)c2ccccc21 (configuration not stated) | 50.5 µM (inactive) | > 100 µM (inactive) | 23 µM (inactive) | 34.9 µM (inactive) | 88.5 µM (inactive) | 60.1 µM (inactive) | 35 µM (inactive) | > 100 µM (inactive) | 65.6 µM (inactive) | 78.3 µM (inactive) | > 100 µM (inactive) | > 100 µM (inactive) | > 100 µM (inactive) | > 100 µM (inactive) | 61.2 µM (inactive) | > 100 µM (inactive) | > 100 µM (inactive) | – | > 100 µM (inactive)
15 | CCOC(=O)c1nc2ccc(C(F)(F)F)cc2nc1Oc1ccc(C#N)cc1 | – | 40.3 µM (inactive) | 14.5 µM (inactive) | 14 µM (inactive) | 18 µM (inactive) | 18.2 µM (inactive) | 18.8 µM (inactive) | – | – | – | 43.1 µM (inactive) | 40.3 µM (inactive) | 12.9 µM (inactive) | 18.2 µM (inactive) | 46.7 µM (inactive) | > 100 µM (inactive) | 23.3 µM (inactive) | 27.4 µM (inactive) | 11.3 µM (inactive)
16 | C=CCC(C(=O)Nc1cccc2nc[nH]c12)C(=O)OCC (configuration not stated) | – | > 100 µM (inactive) | > 100 µM (inactive) | > 100 µM (inactive) | > 100 µM (inactive) | 83.6 µM (inactive) | > 100 µM (inactive) | > 100 µM (inactive) | > 100 µM (inactive) | > 100 µM (inactive) | > 100 µM (inactive) | > 100 µM (inactive) | > 100 µM (inactive) | > 100 µM (inactive) | > 100 µM (inactive) | 33.2 µM (inactive) | > 100 µM (inactive) | – | > 100 µM (inactive)
